Some results are limits rather than exact numbers.

For this assay, the target named is Factor D (Homo sapiens, UniProt P00746). Briefly: Factor D esterolytic assay (Z-Lys-SBzl thioester substrate, DTNB, 405 nm). The assay is classed as biochemical. The conditions noted are these: substrate Z-Lys-SBzl 1.29 mM, 100 mM HEPES, 500 mM NaCl, pH 7.5, 10% DMSO, tested a minimum of three times. In outline:
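Human Factor D hydrolysis of Z-Lys-SBzl (1.29 mM) monitored at 405 nm via DTNB thiol detection for 600 s, 690 nm background subtracted. Buffer 100 mM HEPES, 500 mM NaCl, pH 7.5, 10% DMSO; substrate added immediately or after room-temperature preincubation. IC50 from percent inhibition of rate, at least three tests.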

Sequence of Factor D (P00746 26-253): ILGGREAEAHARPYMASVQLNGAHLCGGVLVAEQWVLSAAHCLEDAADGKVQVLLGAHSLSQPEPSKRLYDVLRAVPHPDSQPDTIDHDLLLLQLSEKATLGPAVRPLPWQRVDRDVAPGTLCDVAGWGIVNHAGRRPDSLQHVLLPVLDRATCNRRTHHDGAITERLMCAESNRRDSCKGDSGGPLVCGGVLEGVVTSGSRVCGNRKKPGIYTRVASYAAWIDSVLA

Take `Nc1ccc2c(c1)c1c(N)ncnc1n2CC(=O)N1[C@@H]2C[C@@H]2C[C@H]1C(=O)Nc1cccc(Br)n1` [Compound 61a, (1R,3S,5R)—N-(6-bromopyridin-2-yl)-2-(2-(4,6-diamino-9H-pyrimido[4,5-b]indol-9-yl)acetyl)-2-azabicyclo[3.1.0]hexane-3-carboxamide]: the 50% inhibitory concentration (IC50) is less than 100 nM.
To `Nc1ncnc2c1c1cc(-c3ccccc3)ccc1n2CC(=O)N1[C@@H]2C[C@@H]2C[C@H]1C(=O)Nc1cccc(Br)n1` [Compound 62c, (1R,3S,5R)-2-(2-(4-amino-6-phenyl-9H-pyrimido[4,5-b]indol-9-yl)acetyl)-N-(6-bromopyridin-2-yl)-2-azabicyclo[3.1.0]hexane-3-carboxamide] belongs less than 100 nM.
To `NCc1ccc2c(c1)c1c(N)ncnc1n2CC(=O)N1[C@@H]2C[C@@H]2C[C@H]1C(=O)Nc1cccc(Br)n1` [Compound 63d, (1R,3S,5R)-2-(2-(4-amino-6-(aminomethyl)-9H-pyrimido[4,5-b]indol-9-yl)acetyl)-N-(6-bromopyridin-2-yl)-2-azabicyclo[3.1.0]hexane-3-carboxamide] belongs less than 100 nM; to `Nc1ncnc2c1ccn2CC(=O)N1C[C@H](F)C[C@H]1C(=O)NCc1cccc(Cl)c1F` [Compound 64a, (2S,4R)-1-(2-(4-amino-7H-pyrrolo[2,3-d]pyrimidin-7-yl)acetyl)-N-(3-chloro-2-fluorobenzyl)-4-fluoropyrrolidine-2-carboxamide], less than 100 nM; to `Nc1ncnn2c(CC(=O)N3C[C@H](F)C[C@H]3C(=O)NCc3cccc(Cl)c3F)ccc12` [Compound 65a, (2S,4R)-1-(2-(4-aminopyrrolo[2,1-f][1,2,4]triazin-7-yl)acetyl)-N-(3-chloro-2-fluorobenzyl)-4-fluoropyrrolidine-2-carboxamide], less than 100 nM.
To `Nc1ncnn2c(CC(=O)N3[C@@H]4C[C@@H]4C[C@H]3C(=O)NCc3cccc(Cl)c3F)ccc12` [Compound 66b, (1R,3S,5R)-2-(2-(4-aminopyrrolo[2,1-f][1,2,4]triazin-7-yl)acetyl)-N-(3-chloro-2-fluorobenzyl)-2-azabicyclo[3.1.0]hexane-3-carboxamide] belongs 100 to 1000 nM; to `C[C@@]12C[C@@H](C(=O)NCc3cccc(Cl)c3F)N(C(=O)Cn3cnc4c(N)ncnc43)[C@@H]1C2` [Compound 67c, (1R,3S,5R)-2-(2-(6-amino-9H-purin-9-yl)acetyl)-N-(3-chloro-2-fluorobenzyl)-5-methyl-2-azabicyclo[3.1.0]hexane-3-carboxamide], 100 to 1000 nM.
`Cc1ccc(Br)nc1NC(=O)[C@@H]1C[C@@H](F)CN1C(=O)Cn1cnc2c(N)ncnc21` [Compound 68a, (2S,4R)-1-(2-(6-amino-9H-purin-9-yl)acetyl)-N-(6-bromo-3-methylpyridin-2-yl)-4-fluoropyrrolidine-2-carboxamide]: the IC50 lay in the range of 100 to 1000 nM.
To `Nc1ncnn2c(CC(=O)N3C[C@H](F)C[C@H]3C(=O)Nc3cccc(Br)n3)ccc12` [Compound 69a, (2S,4R)-1-(2-(4-aminopyrrolo[2,1-f][1,2,4]triazin-7-yl)acetyl)-N-(6-bromopyridin-2-yl)-4-fluoropyrrolidine-2-carboxamide] belongs 100 to 1000 nM; to `Nc1ncnn2c(CC(=O)N3[C@@H]4C[C@@H]4C[C@H]3C(=O)Nc3cccc(Br)n3)ccc12` [Compound 70a, (1R,3S,5R)-2-(2-(4-aminopyrrolo[2,1-f][1,2,4]triazin-7-yl)acetyl)-N-(6-bromopyridin-2-yl)-2-azabicyclo[3.1.0]hexane-3-carboxamide], 100 to 1000 nM; to `C[C@@]12C[C@@H](C(=O)Nc3cccc(Br)n3)N(C(=O)Cc3ccc4c(N)ncnn34)[C@@H]1C2` [Compound 71a, (1R,3S,5R)-2-(2-(4-aminopyrrolo[2,1-f][1,2,4]triazin-7-yl)acetyl)-N-(6-bromopyridin-2-yl)-5-methyl-2-azabicyclo[3.1.0]hexane-3-carboxamide], 100 to 1000 nM.
The value for `Cc1ccc(Br)nc1NC(=O)[C@@H]1C[C@@]2(C)C[C@H]2N1C(=O)Cc1ccc2c(N)ncnn12` [Compound 72a, (1R,3S,5R)-2-(2-(4-aminopyrrolo[2,1-f][1,2,4]triazin-7-yl)acetyl)-N-(6-bromo-3-methylpyridin-2-yl)-5-methyl-2-azabicyclo[3.1.0]hexane-3-carboxamide] was 100 to 1000 nM; that for `C[C@@]12C[C@@H](C(=O)Nc3cccc(Br)n3)N(C(=O)Cn3ccc4c(N)ncnc43)[C@@H]1C2` [Compound 73a, (1R,3S,5R)-2-(2-(4-amino-7H-pyrrolo[2,3-d]pyrimidin-7-yl)acetyl)-N-(6-bromopyridin-2-yl)-5-methyl-2-azabicyclo[3.1.0]hexane-3-carboxamide] was less than 100 nM; that for `Cc1ccc(Br)nc1NC(=O)[C@@H]1C[C@@]2(C)C[C@H]2N1C(=O)Cn1ccc2c(N)ncnc21` [Compound 74a, (1R,3S,5R)-2-(2-(4-amino-7H-pyrrolo[2,3-d]pyrimidin-7-yl)acetyl)-N-(6-bromo-3-methylpyridin-2-yl)-5-methyl-2-azabicyclo[3.1.0]hexane-3-carboxamide] was 100 to 1000 nM.
To `CNc1ncnc2c1cnn2CC(=O)N1CCC[C@H]1C(=O)Nc1cccc(Br)n1` [Compound 75d, (S)—N-(6-bromopyridin-2-yl)-1-(2-(4-(methylamino)-1H-pyrazolo[3,4-d]pyrimidin-1-yl)acetyl)pyrrolidine-2-carboxamide] belongs greater than 1000 nM; to `CNc1ncnc2c1cnn2CC(=O)N1CCC[C@H]1C(=O)NCc1cccc(Cl)c1F` [Compound 76b, (S)—N-(3-chloro-2-fluorobenzyl)-1-(2-(4-(methylamino)-1H-pyrazolo[3,4-d]pyrimidin-1-yl)acetyl)pyrrolidine-2-carboxamide], greater than 1000 nM.
On to `Nc1ncnc2c1cnn2CC(=O)N1CCC[C@H]1C(=O)Nc1cccc(Br)n1` [Compound 77b, (S)-1-(2-(4-amino-1H-pyrazolo[3,4-d]pyrimidin-1-yl)acetyl)-N-(6-bromopyridin-2-yl)pyrrolidine-2-carboxamide], for which the IC50 is greater than 1000 nM.
To `Nc1ncnc2c1cnn2CC(=O)N1CCC[C@H]1C(=O)NCc1cccc(Cl)c1F` [Compound 78a, (S)-1-(2-(4-amino-1H-pyrazolo[3,4-d]pyrimidin-1-yl)acetyl)-N-(3-chloro-2-fluorobenzyl)pyrrolidine-2-carboxamide] belongs 100 to 1000 nM; to `Nc1ncnc2c1cnn2CC(=O)N1[C@@H]2C[C@@H]2C[C@H]1C(=O)Nc1cccc(Br)n1` [Compound 79a, (1R,3S,5R)-2-(2-(4-amino-1H-pyrazolo[3,4-d]pyrimidin-1-yl)acetyl)-N-(6-bromopyridin-2-yl)-2-azabicyclo[3.1.0]hexane-3-carboxamide], 100 to 1000 nM; to `Nc1ncnc2c1ccn2CC(=O)N1[C@@H]2C[C@@H]2C[C@H]1C(=O)Nc1cccc(Br)n1` [Compound 80a, (1R,3S,5R)-2-(2-(4-amino-7H-pyrrolo[2,3-d]pyrimidin-7-yl)acetyl)-N-(6-bromopyridin-2-yl)-2-azabicyclo[3.1.0]hexane-3-carboxamide], less than 100 nM.
For the molecule `Nc1ncnc2c1ccn2CC(=O)N1[C@@H]2C[C@@H]2C[C@H]1C(=O)NCc1cccc(Cl)c1F` [Compound 81a, (1R,3S,5R)-2-(2-(4-amino-7H-pyrrolo[2,3-d]pyrimidin-7-yl)acetyl)-N-(3-chloro-2-fluorobenzyl)-2-azabicyclo[3.1.0]hexane-3-carboxamide], the IC50 is less than 100 nM.
For `CNc1ncnc2c1cnn2CC(=O)N1[C@@H]2C[C@@H]2C[C@H]1C(=O)Nc1cccc(Br)n1` [Compound 82a, (1R,3S,5R)—N-(6-bromopyridin-2-yl)-2-(2-(4-(methylamino)-1H-pyrazolo[3,4-d]pyrimidin-1-yl)acetyl)-2-azabicyclo[3.1.0]hexane-3-carboxamide], the IC50 is greater than 1000 nM.
`Nc1ccnc2c1ccn2CC(=O)N1[C@@H]2C[C@@H]2C[C@H]1C(=O)Nc1cccc(Br)n1` [Compound 83d, (1R,3S,5R)-2-(2-(4-amino-1H-pyrrolo[2,3-b]pyridin-1-yl)acetyl)-N-(6-bromopyridin-2-yl)-2-azabicyclo[3.1.0]hexane-3-carboxamide]: the IC50 was in the range of 100 to 1000 nM.
On to `Nc1ncnc2c1ncn2CC(=O)N1[C@@H]2C[C@@H]2C[C@H]1C(=O)Nc1cccc(Br)n1` [Compound 84a, (1R,3S,5R)-2-(2-(6-amino-9H-purin-9-yl)acetyl)-N-(6-bromopyridin-2-yl)-2-azabicyclo[3.1.0]hexane-3-carboxamide], for which the IC50 lay within 100 to 1000 nM.
To `Nc1cccc2c1ccn2CC(=O)N1[C@@H]2C[C@@H]2C[C@H]1C(=O)Nc1cccc(Br)n1` [Compound 85b, (1R,3S,5R)-2-(2-(4-amino-1H-indol-1-yl)acetyl)-N-(6-bromopyridin-2-yl)-2-azabicyclo[3.1.0]hexane-3-carboxamide] belongs greater than 1000 nM; to `C[C@H](NC(=O)[C@@H]1C[C@H]2C[C@H]2N1C(=O)Cn1ccc2c(N)ncnc21)c1cccc(Cl)c1F` [Compound 86b, (1R,3S,5R)-2-(2-(4-amino-7H-pyrrolo[2,3-d]pyrimidin-7-yl)acetyl)-N—((S)-1-(3-chloro-2-fluorophenyl)ethyl)-2-azabicyclo[3.1.0]hexane-3-carboxamide], 100 to 1000 nM; to `Nc1nc(N)c2ccn(CC(=O)N3[C@@H]4C[C@@H]4C[C@H]3C(=O)Nc3cccc(Br)n3)c2n1` [Compound 87f, (1R,3S,5R)—N-(6-bromopyridin-2-yl)-2-(2-(2,4-diamino-7H-pyrrolo[2,3-d]pyrimidin-7-yl)acetyl)-2-azabicyclo[3.1.0]hexane-3-carboxamide], greater than 1000 nM.
To `Nc1nccc2c1ccn2CC(=O)N1[C@@H]2C[C@@H]2C[C@H]1C(=O)NCc1cccc(Cl)c1F` [Compound 88f, (1R,3S,5R)-2-(2-(4-amino-1H-pyrrolo[3,2-c]pyridin-1-yl)acetyl)-N-(3-chloro-2-fluorobenzyl)-2-azabicyclo[3.1.0]hexane-3-carboxamide] belongs greater than 1000 nM.

As a reminder, the IC50 is the midpoint of a concentration-inhibition curve.

Source of the values: patent US12679843B2, “Pyrrolopyrimidine amines as complement inhibitors” (BioCryst Pharmaceuticals, Inc., priority 2020, dated 2026).
